Two compounds from publication PMC9776540, “Therapeutic Potential of a Water-Soluble Silver-Diclofenac Coordination Polymer on 3D Pancreatic Cancer Spheroids” (Journal of Medicinal Chemistry, 2022) can be followed below.

Data set [1] deals with human cell lines. The note with it: up to a concentration of 100 μM. The protocol:
(§1) MCF7 cell line (human breast adenocarcinoma, morphology: epithelial-like, ATCC: HTB-22), A549 cell […]
(§2) keratinocyte, morphology: epidermal, CSL Cell Lines Service GmbH); were cultured in Dulbecco’s Modified Eagle’s Medium (DMEM, Corning) with phenol red, supplemented with 10% fetal bovine serum (FBS) and with 1% streptomycin/penicillin. […]
(§3) from metastatic site: brain, ATCC: HTB-81) and MCR-5 cell line (primary line of human pulmonary […]
(§4) 10% fetal bovine serum (FBS). Cultures were incubated at 37 °C under a humidified atmosphere containing 5% CO2. Cells were transferred using a solution containing 0.05% trypsin and 0.5 mM EDTA.
(§5) All media and other ingredients were purchased from ALAB, Poland.
Cytotoxicity was assessed by MTT assay performed according the protocols described elsewhere.S1 In brief, 1×10^4 cells per well, seeded in 96-well flat bottom microtiter plate, were incubated with the tested compounds (in the appropriate media) at various range of concentrations for 24 h. […] After next 72 h cell viability was determined using the Hill equation (Origin 9.0) with regard to the untreated cells (control), where y0 – untreated cell control (which was set to 100% viability), y100 – a lysis control (where the cells were treated with 0.5% triton X-100 was set to 0% […]
Determined values of IC50 are given as mean + S.D. (Standard Deviation). […]

Data set [2] relates to A549. Put plainly: MTT survival test, surviving fraction (Table S3). The format is cell-based, human. The protocol:
(§6) 24, and 72 h. After each incubation time, the cells were washed with PBS. Then, fresh medium (supplemented with 10% FSB) was added, and the cells were incubated under standard conditions for another 24 h (6h + 24h, 24h + 24h, 72h + 24h). After this time, the MTT survival test was done. Surviving fraction given in % was estimated with relation to untreated cells. In the case of 6h + 24h and 24h + 24h approaches, the cells were seeded at 10 000 cells per well, while in the case of 72h + 24h at […]

For data set [3], the system named is DU-145. Description: MTT survival test, surviving fraction (Table S3). The format is cell-based, human. The protocol: as §6
In data set [4] the test system is HaCat. Put plainly: MTT survival test, surviving fraction (Table S3). The format is cell-based, human. The protocol: as §6
(Tetrazolium assays rely on reduction of a dye to a coloured formazan, in cell work by metabolically active cells.)

The subject of data set [5] is MCF-7. Put plainly: MTT survival test, surviving fraction (Table S3). The format is cell-based, human. The protocol: as §6
For data set [6], the system named is PANC-1. Put plainly: MTT survival test, surviving fraction (Table S3). The format is cell-based, human. The protocol: as §6
Data set [7] has as its system A549. Description: MTT cytotoxicity assay (IC50). The format is cell-based, human. The note with it: A549, after 72 h incubation, MTT, vs untreated control cells; read-out: IC50. The protocol: as §1, §2, §3, §4, §5
(§7) Cytotoxicity was assessed by MTT assay performed according the protocols described elsewhere.S1 In brief, 1×10^4 cells per well, seeded in 96-well flat bottom microtiter plate, were incubated with the tested compounds (in the appropriate media) at various range of concentrations for 24 h. After that time, solutions of compounds were washed out, cells were washed three times with PBS and fresh medium was applied. After next 72 h cell viability was determined using the Hill equation (Origin 9.0) with regard to the untreated cells (control), where y0 – untreated cell control (which was set to 100% viability), y100 – a lysis control (where the cells were treated with 0.5% triton X-100 was set to 0% […]
(§8) [c] at which the viability of the cells reaches 50%, H – the Hill coefficient (describing cooperativity):
(§9) Each compound concentration was tested in five replicates and repeated at least three times.
(§10) Determined values of IC50 are given as mean + S.D. (Standard Deviation).
(§11) Cisplatin was tested as a reference anticancer drug. […]

In data set [8] the test system is DU-145. Description: MTT cytotoxicity assay (IC50). The format is cell-based, human. The note with it: DU-145, after 72 h incubation, MTT, vs untreated control cells; read-out: IC50. The protocol:
as §1, §2, §3, §4, §5, §7, §8, §9, §10, §11

Data set [9] concerns HaCat. Description: MTT cytotoxicity assay (IC50). The format is cell-based, human. The note with it: HaCat normal cells, after 72 h incubation, MTT, vs untreated control cells; read-out: IC50. The protocol:
as §1, §2, §3, §4, §5, §7, §8, §9, §10, §11

In data set [10] the test system is MCF7. Description: MTT cytotoxicity assay (IC50). The note with it: MCF7, after 72 h incubation, MTT, vs untreated control cells; read-out: IC50. The format is cell-based, human. The protocol:
as §1, §2, §3, §4, §5, §7, §8, §9, §10, §11

The test system of data set [11] is MRC5. Put plainly: MTT cytotoxicity assay (IC50). The format is cell-based, human. The note with it: MRC5 normal cells, after 72 h incubation, MTT, vs untreated control cells; read-out: IC50. The protocol: as §1, §2, §3, §4, §5, §7, §8, §9, §10, §11
In data set [12] the test system is PANC-1. Put plainly: MTT cytotoxicity assay (IC50). Conditions: PANC-1, after 72 h incubation, MTT, vs untreated control cells; read-out: IC50. The format is cell-based, human. The protocol: as §1, §2, §3, §4, §5, §7, §8, §9, §10, §11

For `O=[N+]([O-])[O-].[Ag+]` [AgNO3, silver(I) nitrate], the “cytotoxic effect of free Ag(I) salt” value in data set [1] is “does not cause significant toxic effects”. The surviving fraction in [2] (A549, 6h + 24h, dil. 10 000x (stocks: diclofenac 0.918, PTA 0.483, AgNO3 0.326 mg/mL)) was 68.1 ± 6.2%; in data set [2] (A549, 6h + 24h, dil. 1000x (stocks: diclofenac 0.918, PTA 0.483, AgNO3 0.326 mg/mL)) it was 48.9 ± 6.5%; in [2] (A549, 24h + 24h, dil. 10 000x (stocks: diclofenac 0.918, PTA 0.483, AgNO3 0.326 mg/mL)), 57.4 ± 3.8%; in data set [2] (A549, 24h + 24h, dil. 1000x (stocks: diclofenac 0.918, PTA 0.483, AgNO3 0.326 mg/mL)), 31.2 ± 5.5%; in [2] (A549, 72h + 24h, dil. 10 000x (stocks: diclofenac 0.918, PTA 0.483, AgNO3 0.326 mg/mL)), 55.8 ± 8.1%; in [2] (A549, 72h + 24h, dil. 1000x (stocks: diclofenac 0.918, PTA 0.483, AgNO3 0.326 mg/mL)), 34.1 ± 5.3%. The surviving fraction amounted to 74.5 ± 8.8% in data set [3] (Du-145, 6h + 24h, dil. 10 000x (stocks: diclofenac 0.918, PTA 0.483, AgNO3 0.326 mg/mL)); 62.87 ± 5.9% in data set [3] (Du-145, 6h + 24h, dil. 1000x (stocks: diclofenac 0.918, PTA 0.483, AgNO3 0.326 mg/mL)); 58.8 ± 7.3% in data set [3] (Du-145, 24h + 24h, dil. 10 000x (stocks: diclofenac 0.918, PTA 0.483, AgNO3 0.326 mg/mL)); 36.7 ± 7.1% in [3] (Du-145, 24h + 24h, dil. 1000x (stocks: diclofenac 0.918, PTA 0.483, AgNO3 0.326 mg/mL)); 56.1 ± 5.9% in [3] (Du-145, 72h + 24h, dil. 10 000x (stocks: diclofenac 0.918, PTA 0.483, AgNO3 0.326 mg/mL)); 42.8 ± 5.9% in data set [3] (Du-145, 72h + 24h, dil. 1000x (stocks: diclofenac 0.918, PTA 0.483, AgNO3 0.326 mg/mL)). Besides, the surviving fraction in [4] (6h + 24h, dil. 10 000x (stocks: diclofenac 0.918, PTA 0.483, AgNO3 0.326 mg/mL)) was 88.1 ± 4.2%; in [4] (6h + 24h, dil. 1000x (stocks: diclofenac 0.918, PTA 0.483, AgNO3 0.326 mg/mL)), 76.7 ± 6.8%; in data set [4] (24h + 24h, dil. 10 000x (stocks: diclofenac 0.918, PTA 0.483, AgNO3 0.326 mg/mL)) it was 72.7 ± 8.1%; in [4] (24h + 24h, dil. 1000x (stocks: diclofenac 0.918, PTA 0.483, AgNO3 0.326 mg/mL)) it was 41.6 ± 6.9%; in [4] (72h + 24h, dil. 10 000x (stocks: diclofenac 0.918, PTA 0.483, AgNO3 0.326 mg/mL)), 70.5 ± 5.8%; in data set [4] (72h + 24h, dil. 1000x (stocks: diclofenac 0.918, PTA 0.483, AgNO3 0.326 mg/mL)) it was 65.2 ± 6.3%. Besides, the surviving fraction was found to be 59.2 ± 8.2% in data set [5] (MCF-7, 6h + 24h, dil. 10 000x (stocks: diclofenac 0.918, PTA 0.483, AgNO3 0.326 mg/mL)); 62.7 ± 6.3% in data set [5] (MCF-7, 6h + 24h, dil. 1000x (stocks: diclofenac 0.918, PTA 0.483, AgNO3 0.326 mg/mL)); 62.1 ± 5.5% in data set [5] (MCF-7, 24h + 24h, dil. 10 000x (stocks: diclofenac 0.918, PTA 0.483, AgNO3 0.326 mg/mL)); 38.5 ± 7.3% in data set [5] (MCF-7, 24h + 24h, dil. 1000x (stocks: diclofenac 0.918, PTA 0.483, AgNO3 0.326 mg/mL)); 56.8 ± 6.2% in data set [5] (MCF-7, 72h + 24h, dil. 10 000x (stocks: diclofenac 0.918, PTA 0.483, AgNO3 0.326 mg/mL)); 36.0 ± 8.4% in data set [5] (MCF-7, 72h + 24h, dil. 1000x (stocks: diclofenac 0.918, PTA 0.483, AgNO3 0.326 mg/mL)). Further, the surviving fraction is given as 76.2 ± 7.4% in data set [6] (PANC-1, 6h + 24h, dil. 10 000x (stocks: diclofenac 0.918, PTA 0.483, AgNO3 0.326 mg/mL)); 65.89 ± 4.6% in data set [6] (PANC-1, 6h + 24h, dil. 1000x (stocks: diclofenac 0.918, PTA 0.483, AgNO3 0.326 mg/mL)); 65.8 ± 6.6% in data set [6] (PANC-1, 24h + 24h, dil. 10 000x (stocks: diclofenac 0.918, PTA 0.483, AgNO3 0.326 mg/mL)); 44.2 ± 9.2% in data set [6] (PANC-1, 24h + 24h, dil. 1000x (stocks: diclofenac 0.918, PTA 0.483, AgNO3 0.326 mg/mL)); 65.8 ± 6.1% in data set [6] (PANC-1, 72h + 24h, dil. 10 000x (stocks: diclofenac 0.918, PTA 0.483, AgNO3 0.326 mg/mL)); 55.4 ± 6.7% in [6] (PANC-1, 72h + 24h, dil. 1000x (stocks: diclofenac 0.918, PTA 0.483, AgNO3 0.326 mg/mL)).
The term IC50 denotes the point on the concentration scale where inhibition reaches its midpoint. As for `N.N.[Cl][Pt][Cl]` [cisplatin], the IC50 in data set [7] is over 100 µM; in data set [8], over 100 µM; in [9], 26.4 ± 2.7 µM; in data set [10] it was 50.9 ± 7.6 µM; in data set [11], 31.5 ± 4.1 µM; in data set [12], 12.5 ± 1.3 µM.
